Test system: LNCaP cells expressing ARR2PB-FireflyLuc and CMV-RenillaLuc
Test: LNCaP ARR2PB-FireflyLuc reporter assay, antagonist mode;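 also: IC50 bins in nM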
Format: cell-based
Details: Homo sapiens, LNCaP, 48 h, +0.5 nM DHT, 48 h at 37° C., read-out: LNCap Antagonist Archive: IC50
Experimental: LNCaP cells expressing ARR2PB-FireflyLuc and CMV-RenillaLuc were treated with indicated concentrations of test compounds, enzalutamide (negative control), or DHT (positive control)+/−0.5 nM DHT for 48 h at 37° C. Fluorescent signals were read with the ImageXpress Micro Confocal System. Remaining activity (antagonist mode) was calculated as % Remaining Activity=100×[(ReadSample−LCave)/(HCave−LCave)] where HC is cells treated with 0.5 nM DHT only and LC is cells treated with 10 uM enzalutamide+0.5 nM DHT. Activation (agonist mode) was calculated as % Activation=100×[(ReadSample−LCave)/(HCave−LCave)] where HO is cells treated with 1 uM DHT and LC is cells treated with DMSO. Dose response curves and IC50 values were calculated using non-linear regression analysis in XLfit.
The designation “A” indicates an IC50 value of >10 μM, “B” indicates an IC50 value between 1 μM and 10 μM; “C” indicates an IC50 value between 100 nM and 1 μM; and “D” indicates an IC50 value of less than 100 nM.

Row | SMILES | IC50
1 | COCCNC(=O)c1cc2ccc(F)cc2n1-c1ccc(C#N)cn1 [Example 52, 1-(5-cyanopyridin-2-yl)-6-fluoro-N-(2-methoxyethyl)-1H-indole-2-carboxamide] | > 10000 nM
2 | COCCNC(=O)c1cc2ccc(F)cc2n1-c1ccc(Cl)cn1 [Example 53, 1-(5-chloropyridin-2-yl)-6-fluoro-N-(2-methoxyethyl)-1H-indole-2-carboxamide] | > 10000 nM
3 | COCCNC(=O)c1cc2ccc(F)cc2n1-c1ncccn1 [Example 54, 6-fluoro-N-(2-methoxyethyl)-1-(pyrimidin-2-yl)-1H-indole-2-carboxamide] | > 10000 nM
4 | COCCN(C(=O)c1cc2cccc(Cl)c2[nH]1)c1ccc(C#N)cc1 [Example 55, 7-chloro-N-(4-cyanophenyl)-N-(2-methoxyethyl)-1H-indole-2-carboxamide] | 100 to 1000 nM
5 | N#Cc1ccc(N(CC2CC2)C(=O)c2cc3cccc(Cl)c3[nH]2)cc1 [Example 56, 7-chloro-N-(4-cyanophenyl)-N-(cyclopropylmethyl)-1H-indole-2-carboxamide] | 100 to 1000 nM
6 | COCCN(C(=O)c1cc2ccc(F)cc2[nH]1)c1ccn(C)n1 [Example 57, 6-fluoro-N-(2-methoxyethyl)-N-(1-methyl-1H-pyrazol-3-yl)-1H-indole-2-carboxamide] | > 10000 nM
7 | O=C(c1cc2cccc(Cl)c2[nH]1)N(c1ccc(F)cc1)C1CCOC1 (centres unmarked) [Example 58, 7-chloro-N-(4-fluorophenyl)-N-(tetrahydrofuran-3-yl)-1H-indole-2-carboxamide] | 100 to 1000 nM
8 | CN(C(=O)c1cc2ccc(F)cc2[nH]1)c1ccccc1 [Example 59, 6-fluoro-N-methyl-N-phenyl-1H-indole-2-carboxamide] | 100 to 1000 nM
9 | N#Cc1cccc2cc(C(=O)N(CC3CC3)c3ccccn3)[nH]c12 [Example 60, 7-((I1-azaneyl)ethynyl)-N-(cyclopropylmethyl)-N-(pyridin-2-yl)-1H-indole-2-carboxamide] | > 10000 nM
10 | C[C@H]1OCC[C@@H]1NC(=O)c1cc2cccc(Cl)c2[nH]1 [Example 61, 7-chloro-N-[(2R,3S)-2-methyloxolan-3-yl]-1H-indole-2-carboxamide] | 100 to 1000 nM
11 | C[C@@H]1OCC[C@@H]1NC(=O)c1cc2cccc(Cl)c2[nH]1 [Example 62, 7-chloro-N-[(2S,3S)-2-methyloxolan-3-yl]-1H-indole-2-carboxamide] | 1000 to 10000 nM
12 | CC1(C)CC(NC(=O)c2cc3cccc(Cl)c3[nH]2)CO1 (centres unmarked) [Example 63, 7-chloro-N-(5,5-dimethyloxolan-3-yl)-1H-indole-2-carboxamide] | > 10000 nM
13 | C[C@@H]1COC[C@H]1NC(=O)c1cc2cccc(Cl)c2[nH]1 [Example 64, 7-chloro-N-[(3S,4S)-4-methyloxolan-3-yl]-1H-indole-2-carboxamide] | 1000 to 10000 nM
14 | C[C@H]1COC[C@H]1NC(=O)c1cc2cccc(Cl)c2[nH]1 [Example 65, 7-chloro-N-[(3S,4R)-4-methyloxolan-3-yl]-1H-indole-2-carboxamide] | 1000 to 10000 nM
15 | CC(C)N(Cc1cnco1)C(=O)c1cc2cccc(C#N)c2[nH]1 [Example 66, 7-cyano-N-isopropyl-N-(1,3-oxazol-5-ylmethyl)-1H-indole-2-carboxamide] | 1000 to 10000 nM
16 | CC(C)N(Cc1cnco1)C(=O)c1cc2cccc(Cl)c2[nH]1 [Example 67, 7-chloro-N-isopropyl-N-(1,3-oxazol-5-ylmethyl)-1H-indole-2-carboxamide] | 100 to 1000 nM
17 | N#Cc1ccc(NC(=O)c2cc3cccc(Cl)c3[nH]2)cc1 [Example 68, 7-chloro-N-(4-cyanophenyl)-1H-indole-2-carboxamide] | 1000 to 10000 nM
18 | O=C(NC1CCCC1)c1cc2cccc(Cl)c2[nH]1 [Example 69, 7-chloro-N-cyclopentyl-1H-indole-2-carboxamide] | > 10000 nM
19 | CN(CC1CCCC1)C(=O)c1cc2cccc(Cl)c2[nH]1 [Example 70, 7-Chloro-N-(cyclopentylmethyl)-N-methyl-1H-indole-2-carboxamide] | 1000 to 10000 nM
20 | O=C(c1cc2cccc(Cl)c2[nH]1)N1CCCC1 [Example 71, 7-chloro-2-(pyrrolidine-1-carbonyl)-1H-indole] | > 10000 nM
21 | CN(C(=O)c1cc2cccc(Cl)c2[nH]1)C1CCOCC1 [Example 72, 7-chloro-N-methyl-N-(oxan-4-yl)-1H-indole-2-carboxamide] | > 10000 nM
22 | CN(C(=O)c1cc2cccc(Cl)c2[nH]1)C1CCCOC1 (centres unmarked) [Example 73, 7-chloro-N-methyl-N-(oxan-3-yl)-1H-indole-2-carboxamide] | > 10000 nM

Row | SMILES | IC50
23 | CN(C(=O)c1cc2cccc(Cl)c2[nH]1)C1CCOC(C)(C)C1 (centres unmarked) [Example 74, 7-chloro-N-(2,2-dimethyloxan-4-yl)-N-methyl-1H-indole-2-carboxamide] | 1000 to 10000 nM
24 | CN(C(=O)c1cc2cccc(Cl)c2[nH]1)C1CC(C)(C)NC(C)(C)C1 [Example 75, 7-chloro-N-methyl-N-(2,2,6,6-tetramethylpiperidin-4-yl)-1H-indole-2-carboxamide] | > 10000 nM
25 | COCCN(C(=O)c1cc2cccc(Cl)c2[nH]1)c1ccc(C#N)c(C)c1 [Example 76, 7-chloro-N-(4-cyano-3-methylphenyl)-N-(2-methoxyethyl)-1H-indole-2-carboxamide] | 1000 to 10000 nM
26 | COCCN(C(=O)c1cc2cccc(Cl)c2[nH]1)c1ccc(C#N)cc1C [Example 77, 7-chloro-N-(4-cyano-2-methylphenyl)-N-(2-methoxyethyl)-1H-indole-2-carboxamide] | > 10000 nM
27 | COCCN(C(=O)c1cc2cccc(Cl)c2[nH]1)c1ccc(C#N)c(F)c1 [Example 78, 7-Chloro-N-(4-cyano-3-fluorophenyl)-N-(2-methoxyethyl)-1H-indole-2-carboxamide] | 1000 to 10000 nM
28 | COCCN(C(=O)c1cc2cccc(Cl)c2[nH]1)c1ccc(C#N)cc1F [Example 79, 7-chloro-N-(4-cyano-2-fluorophenyl)-N-(2-methoxyethyl)-1H-indole-2-carboxamide] | 1000 to 10000 nM
29 | CC1OCCC1N(C)C(=O)c1cc2cccc(Cl)c2[nH]1 (centres unmarked) [Example 80, 7-chloro-N-methyl-N-(2-methyloxolan-3-yl)-1H-indole-2-carboxamide] | 1000 to 10000 nM
30 | CN(C(=O)c1cc2cccc(Cl)c2[nH]1)C1CCCCC1 [Example 81, 7-chloro-N-cyclohexyl-N-methyl-1H-indole-2-carboxamide] | 1000 to 10000 nM
31 | CN(C(=O)c1cc2cccc(Cl)c2[nH]1)C12CC(C1)C2 [Example 82, N-[bicyclo[1.1.1]pentan-1-yl]-7-chloro-N-methyl-1H-indole-2-carboxamide] | 100 to 1000 nM
32 | N#Cc1ccc(N(C(=O)c2cc3cccc(Cl)c3[nH]2)C2CCOC2)cc1 (centres unmarked) [Example 83, 7-chloro-N-(4-cyanophenyl)-N-(oxolan-3-yl)-1H-indole-2-carboxamide] | < 100 nM
33 | N#Cc1cccc2cc(C(=O)N(c3ccc(F)cc3)C3CCOC3)[nH]c12 (centres unmarked) [Example 84, 7-cyano-N-(4-fluorophenyl)-N-(oxolan-3-yl)-1H-indole-2-carboxamide] | 100 to 1000 nM
34 | O=C(c1cc2ccc(F)cc2[nH]1)N(c1ccc(F)cc1)C1CCOC1 (centres unmarked) [Example 85, 6-fluoro-N-(4-fluorophenyl)-N-(tetrahydrofuran-3-yl)-1H-indole-2-carboxamide] | < 100 nM
35 | CN(C(=O)c1cc2cccc(Cl)c2[nH]1)C12CC(C#N)(C1)C2 [Example 86, 7-chloro-N-[3-cyanobicyclo[1.1.1]pentan-1-yl]-N-methyl-1H-indole-2-carboxamide] | 1000 to 10000 nM
36 | C[Si](C)(C)CCOCn1c(C(=O)NC23CC(O)(C2)C3)cc2cccc(Cl)c21 [Example 88, 7-chloro-N-(3-hydroxybicyclo[1.1.1]pentan-1-yl)-1-((2-(trimethylsilyl)ethoxy)methyl)-1H-indole-2-carboxamide] | 1000 to 10000 nM
37 | O=C(NC12CC(C1)C2)c1cc2cccc(Cl)c2[nH]1 [Example 89, N-[bicyclo[1.1.1]pentan-1-yl]-7-chloro-1H-indole-2-carboxamide] | 100 to 1000 nM
38 | COCCN(C(=O)c1cc2cccc(Cl)c2[nH]1)C12CC(C1)C2 [Example 90, N-[bicyclo[1.1.1]pentan-1-yl]-7-chloro-N-(2-methoxyethyl)-1H-indole-2-carboxamide] | 1000 to 10000 nM
39 | CN(C(=O)c1cc2ccc(F)cc2[nH]1)C1CC(F)(F)C1 [Example 92, N-(3,3-difluorocyclobutyl)-6-fluoro-N-methyl-1H-indole-2-carboxamide] | 100 to 1000 nM
40 | CN(C(=O)c1cc2ccc(F)cc2[nH]1)C12CC(C1)C2 [Example 93, N-[bicyclo[1.1.1]pentan-1-yl]-6-fluoro-N-methyl-1H-indole-2-carboxamide] | 100 to 1000 nM
41 | CN(C(=O)c1cc2cccc(C#N)c2[nH]1)C12CC(C1)C2 [Example 94, N-[bicyclo[1.1.1]pentan-1-yl]-7-cyano-N-methyl-1H-indole-2-carboxamide] | 1000 to 10000 nM
42 | CN(C(=O)c1cc2ccnc(Cl)c2[nH]1)C12CC(C1)C2 [Example 95, N-[bicyclo[1.1.1]pentan-1-yl]-7-chloro-N-methyl-1H-pyrrolo[2,3-c]pyridine-2-carboxamide] | 100 to 1000 nM
43 | COc1nccc2cc(C(=O)N(C)C34CC(C3)C4)[nH]c12 [Example 96, N-[bicyclo[1.1.1]pentan-1-yl]-7-methoxy-N-methyl-1H-pyrrolo[2,3-c]pyridine-2-carboxamide] | 1000 to 10000 nM
44 | Cc1ncoc1CN(C)C(=O)c1cc2cccc(Cl)c2[nH]1 [Example 97, 7-chloro-N-methyl-N-[(4-methyl-1,3-oxazol-5-yl)methyl]-1H-indole-2-carboxamide] | > 10000 nM

— US12012398B2, “Bicyclic compounds as androgen receptor modulators” (NIDO BIOSCIENCES, INC., priority 2021, dated 2024)
